Laboratory results reported in patent US10357577B2, “Bacterial nitroreductase enzymes and methods relating thereto” (AUCKLAND UNISERVICES LIMITED, priority 2010, dated 2019).
Entries after “also recorded” stand apart in the source; their conditions may differ.

Columns and labels:
[1] = system: HCT116 cells expressing E. coli NfsB; assay: Monolayer antiproliferative (IC50) assay, NTR-expressing HCT116; assay type: cell-based, human; conditions: 18 hrs exposure, 5 days regrowth
Method: (§1) FIGS. 10 (B) and 10 (C) illustrates the results of evaluation of 2-nitroimidazole clinical imaging candidates with E. coli and non-E. coli NTRs. Stably-expressing cells were treated with varying concentration of 2-nitroimidazole prodrugs diluted in αMEM+5% FCS+P/S. Cells were exposed to prodrug for 18 hrs, washed and left to regrow for 5 days. IC50 was determined as the concentration of prodrug required to inhibit cell growth by 50% of untreated controls. IC50 values are mean for ≥2 independent experiments. WT:NTR ratio-ratio of IC50 means from WT cells versus NTR-expressing cell lines.
as §1, with “FIG. 21” for “FIGS. 10 (B) and 10 (C)”, “antiproliferative activity (IC50 value)” for “the results”, “prodrug” for “evaluation of 2-nitroimidazole clinical imaging”, “nitroreductases.” for “NTRs.”, “prodrug” for “2-nitroimidazole prodrugs”, “ratio-interexperimental ratio” for “ratio-ratio”
(§2) Isolated NTR gene sequences were subject to PCR and introduced in the bicistronic plasmid F579 via Gateway cloning (Invitrogen) as described by Prosser et al. (2010, Biochem Pharmacol, 79, 678-687). Stably transfected cell lines were created by transfection of the relevant plasmid using FuGENE 6 Transfection Reagent (Roche). Transfected cell populations were maintained by passage in puromycin
(§3) Cells were passaged in alpha-Minimal Essential Media, (αMEM; Gibco) supplemented with 5% FBS, (GIBCO NZ) without antibiotics. Cell were passaged for <3 months from frozen stocks and confirmed Mycoplasma free (PCR-ELISA; Roche Diagnostics). Cells were aliquoted into the 96-well plate (100 μL/well) and cells were left to attach (≥4 hrs). […] Plates were read on an ELx 808 Absorbance Microplate Reader (Bio-Tek Instruments). Absorbance was measured at 490 nm and 450 nm (final absorbance 490-450). […]

[2] = system: HCT116 cells expressing NfsB homologue P. putida 2432; assay: as above; assay type: cell-based, human; conditions: 18 hrs exposure, 5 days regrowth
Method: as §1, §2
as §3, with “Diagnostics).” for “Diagnostics). Cells were aliquoted into the 96-well plate (100 μL/well) and cells were left to attach (≥4 hrs).”

NfsB(Ec) = biological target: T1, NfsB(Ec) (Escherichia coli, UniProt P38489); assay: Growth Inhibition assay, NTR over-expressing E. coli SOS-R2; assay type: cell-based; conditions: elevated substrate concentrations (400 μM F-MISO, 600 μM HX4)
T1 construct: expressed in transfected cells; host or cells: E. coli SOS-R2 (endogenous nfsA, nfsB, nemA and azoR deleted) carrying pUCX::ntr
T1 sequence (P38489 whole entry): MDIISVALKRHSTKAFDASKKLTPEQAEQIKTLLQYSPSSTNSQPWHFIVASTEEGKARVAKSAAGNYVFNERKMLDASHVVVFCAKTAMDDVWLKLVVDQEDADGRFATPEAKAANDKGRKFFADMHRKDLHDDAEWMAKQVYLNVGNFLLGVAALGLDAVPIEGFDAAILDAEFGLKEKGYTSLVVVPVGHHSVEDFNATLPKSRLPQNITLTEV
Method: FIG. 34 (B) illustrates the metabolism of F-MISO by members of the 58 NTR over-expression library as measured by Growth Inhibition assay as described for FIG. 34A except that cells were challenged with 400 μM F-MISO.
FIG. 35 (B) illustrates the metabolism of HX4 by members of the 58 NTR over-expression library as measured by Growth Inhibition assay as described for FIG. 35A except that cells were challenged with 600 μM HX4.
Individual microtiter plate wells containing 200 μl LB+amp, 0.4% glucose were inoculated with SOS-R2 pUCX::ntr strains and incubated overnight at 30° C., 200 rpm. Ten μl of the overnight culture were used to inoculate 190 μl of fresh assay media (LB+amp, 0.05 mM IPTG, 0.2% glucose) and incubated at 30° C., 200 rpm for 3 h. The 200 μl culture was split into 100 μl duplicates which were supplemented with either 100 μl challenge media (assay media+250 uM EF5+2% DMSO) or 100 μl control media (assay media+2% DMSO). Initial OD600 readings were recorded and then plates incubated at 30° C., 200 rpm for 4 h after which final OD600 readings were taken and used to calculate strains respective growth inhibition in EF5 presence.

[3] = system: nitroreductase NfsA-expressing HCT116 'activator' cells; assay: MCL (multicellular layer) bystander experiment, NfsA-dependent activation; assay type: cell-based, human
Method: Displacement of the Target cell survival curve to the left (T to Tc) is indicative of the presence of a cytotoxic metabolite(s) able to diffusible out of the sensitive activator (A) cell population. The prodrug concentrations for 10% survival (C10) of target cells (wild-type cells) grown without activators (T), targets in co-culture (TC) and activators (nfsA-expressing cells) in co-culture (AC) were determined by interpolation. BEE-Bystander effect efficiency calculates the drugs bystander effect: ((Log C10T−Log C10TC)/(Log C10T−Log C10AC)).
The prodrug concentrations for 10% survival (C10) of target cells (wild-type cells) grown without activators (T), and targets in co-culture (TC) and activators (NTR-expressing cells) in co-culture (AC) can be determined. The bystander effect of a test prodrug is measured by the bystander effect efficiency which can be calculated using the algorithm ((Log C10T−Log C10TC)/(Log C10T−Log C10AC)).
Millicell-CM membrane inserts (Millipore) were coated in calf-skin collagen type III (Sigma-Aldrich) to facilitate cell attachment. […] After exposure, inserts were disaggregated (0.07% trypsin, 10 min, 37° C., followed by 100 μg/ml DNAase I (Sigma-Aldrich). Cells were counted, resuspended and plated in P60 dishes to determine clonogenic survival. To discriminate clonogenic activator (NTR+) from target (NTR−) colonies cells were plated in non-selective medium (total cells) and medium containing 1 μM puromycin (activator cells). Colonies were grown in a 37° C. 5% CO2 incubator for 10 days before staining with methylene blue (2 g/liter in 50% v/v aqueous ethanol). Colonies containing >50 cells were counted as clonogenic survivors. Surviving fractions for each population was calculated as the plating efficiency for drug-treated MCLs/untreated controls. The drug concentrations for 10% survival (C10) of target cells grown without activators (T), targets in co-culture (Tc) and activators in co-culture (Ac) was determined by interpolation.

[4] = system: ONYX-411^NfsB infected HCT-116WT cells; assay: Cytopathic effect assay, replicating adenovirus expressing E. coli NfsB; assay type: cell-based; conditions: metronidazole refreshed every 2 days, read on day 9
Method: (§4) FIG. 31 illustrates the cytoprotective effects of NfsB dependent activation of metronidazole by conditionally replicating virus ONYX411^NfsB. HCT-116WT cells were seeded overnight and the top wells were infected with 0.125 MOI for ONYX411-nfsB and 1 MOI for ONYX411-WT with 2-fold serial dilutions. 24 hrs following infection media was replaced with fresh αMEM containing 2% FCS and varying concentrations of metronidazole, which was refreshed every 2 days. On day 9 wells were fixed with 10% TCA and stained with SRB and cell density analysed.
(§5) HCT-116WT cells were seeded overnight and the top wells were infected with 0.125 MOI of the replication competent adenovirus ONYX411-nfsB and 1 MOI for ONYX411-WT with 2-fold serial dilutions ((Singleton et al, 2007, Cancer Gene Ther 14 (12): 953-967). 24 hrs following infection media was replaced with fresh αMEM containing 2% FCS and varying concentrations of metronidazole, which was refreshed every 2 days. On day 9 wells were fixed with 10% TCA and stained with SRB and cell density analysed.

[5] = system: ONYX-411^WT infected HCT-116WT cells; assay: Cytopathic effect assay, control virus; assay type: cell-based, adenovirus; conditions: metronidazole refreshed every 2 days, read on day 9
Method: as §4, §5

[6] = Human plasma concentration-time (AUC) and tolerability; assay type: in vivo; conditions: 50 μM metronidazole exposure, achievable in humans, read-out: human AUC equivalent to the protective exposure
[7] = system: 25% HCT-116^nfsB/75% HCT-116^WT or 25% HCT-116^nfsA/75% HCT-116^WT tumours; assay: Tumour xenograft growth delay; assay type: in vivo, NIH-III nude mice; conditions: single dose i.p. PR-104 1000 μmol/kg
Method: FIG. 18 illustrates in vivo activity of PR-104 in 25% nfsB or 25% nfsA tumours. Average tumour volume and Kaplan-Meier growth plots for tumours grown subcutaneously on NIH-III mice. Tumours were composed of either 25% HCT-116^nfsB/75% HCT-116^WT or 25% HCT-116^nfsA/75% HCT-116^WT. When tumours reached 7 mm^2 mice (n=8-11 per group) were randomly assigned to a treatment group and injected with a single dose (i.p.) of PBS (control) or PR-104 (1000 μmol/kg). Tumour measurements were recorded twice weekly and mice were culled when tumours exceeded a mean diameter of […].
Specific pathogen-free female homozygous NIH-III nude mice (CrI:NIH-Lyst^bgFoxn1^nuBtk^xid; Charles River Laboratories) were housed in Techniplast microisolator cages and fed Harlan Teklad diet 2018i. […] Tumours were monitored using electronic calipers and mice were randomised into treatment groups once their tumours reached 7×7 mm in diameter. Tumour size and body weight were determined three times weekly. Tumour volume was calculated as π (I×w^2)/6, where I is the major axis and w is the perpendicular minor axis. […] The median time for tumours to increase in volume 4-fold relative to pretreatment volume (RTV-4) was determined, and the specific growth delay (SGD) was calculated as the percentage increase in RTV-4 for treated versus control groups. […]

For O=[N+]([O-])c1nccn1CC(O)CF (stereo not drawn) [F-MISO, 1-fluoro-3-(2-nitro-1H-imidazol-1-yl)propan-2-ol], the “sensitivity to 2-nitroimidazoles (in words)” value [1] was “modest sensitivity”, the “sensitivity to 2-nitroimidazoles (in words)” value [2] was “modest sensitivity” and the “activity with 2-NI substrate (in words)” value (NfsB(Ec)) was “substantial activity”.
For Cc1ncc([N+](=O)[O-])n1CCO [Metronidazole, 2-(2-methyl-5-nitro-1H-imidazol-1-yl)ethanol], the “bystander property (in words)” value ([3]; MCL of NTR-expressing and parental HCT116 cells) was “lack any measurable bystander effect; also recorded: zero bystander property”, the “estimated bystander effect efficiency (BEE)” value ([3]; hyperoxic (95% O2) MCLs, at concentrations achievable in α-MEM+10% FBS, activator fraction differs per experiment) was 0% and the “concentration range with reduction in oncolytic activity” value [4] was 50 to 500 µM. For the same compound, the “effect on oncolytic activity (in words)” value [5] was “no inhibitory effects” and the AUC [6] was 1200 µM·h.
For CS(=O)(=O)OCCN(CCBr)c1c(C(=O)NCCOP(=O)(O)O)cc([N+](=O)[O-])cc1[N+](=O)[O-] [PR-104, 2-((2-bromoethyl)(2,4-dinitro-6-((2-(phosphonooxy)ethyl)carbamoyl)phenyl)amino)ethyl methanesulfonate], the “PR-104 dependent growth delay, nfsB versus nfsA tumours (in words)” value [7] was “similar, with no statistically significant difference”.
